Test results taken from patent US7462717B2, “C6-and C9-substituted chromeno[4,3-c]isoxazoline derivatives and their use as anti-depressants” (Janssen Pharmaceutica N.V., priority 2002, dated 2008).

Columns and labels:
hα2A receptor = target: T1, hα2A receptor (Homo sapiens, UniProt P08913); test: Radioligand binding experiment for α2A-adrenergic receptor ([3H]-raulwolscine); settings: membranes of CHO cells transfected with human α2A receptor; [3H]raulwolscine 1 nM
T1 construct: expressed in transfected cells
T1 sequence (P08913 1-465): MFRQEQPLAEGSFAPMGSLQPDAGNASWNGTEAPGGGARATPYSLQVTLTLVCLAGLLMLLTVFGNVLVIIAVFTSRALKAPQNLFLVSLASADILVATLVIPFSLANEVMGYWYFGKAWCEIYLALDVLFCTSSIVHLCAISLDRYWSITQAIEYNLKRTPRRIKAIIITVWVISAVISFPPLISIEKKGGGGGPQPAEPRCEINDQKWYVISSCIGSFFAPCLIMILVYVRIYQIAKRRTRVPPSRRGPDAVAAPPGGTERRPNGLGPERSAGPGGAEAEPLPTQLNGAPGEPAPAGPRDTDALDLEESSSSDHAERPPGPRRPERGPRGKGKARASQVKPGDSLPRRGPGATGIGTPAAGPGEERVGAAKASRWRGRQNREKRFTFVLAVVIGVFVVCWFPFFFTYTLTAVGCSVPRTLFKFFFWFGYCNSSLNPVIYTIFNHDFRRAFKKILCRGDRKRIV
Protocol: (§1) The interaction of the compounds of Formula (I) with hα2-receptors and h5-HT-transporters was assessed in in vitro radioligand binding experiments. In general, a low concentration of a radioligand with a high binding affinity for a particular receptor or transporter is incubated with a sample of a tissue preparation enriched in a particular receptor or transporter or with a preparation of cells expressing cloned human receptors in a buffered medium. During the incubation, the radioligand binds to the receptor or transporter. When equilibrium of binding is reached, the receptor bound radioactivity is separated from the non-bound radioactivity, and the receptor- or transporter-bound activity is counted. The interaction of the test compounds with the receptor is assessed in competition binding experiments. Various concentrations of the test compound are added to the incubation mixture containing the receptor- or transporter preparation and the radioligand. The test compound in proportion to its binding affinity and its concentration inhibits binding of the radioligand. The radioligand used for hα2A, hα2B and hα2C receptor binding was [^3H]-raulwolscine and for the h5-HT transporter was [^3H]paroxetine.
(§2) CHO cells, stabile transfected with human adrenergic-α2A-, -α2B or α2C receptor cDNA, were cultured in Dulbecco's Modified Eagle's Medium (DMEM)/Nutrient mixture Ham's F12 (ratio 1:1) (Gibco, Gent-Belgium) supplemented with 10% heat inactivated fetal calf serum (Life Technologies, Merelbeke-Belgium) and antibiotics (100 IU/ml penicillin G, 100 μg/ml streptomycin sulphate, 110 μg/ml pyruvic acid and 100 μg/ml L-glutamine). One day before collection, cells were induced with 5 mM sodiumbutyrate. Upon 80-90% of confluence, cells were scraped in phosphate buffered saline without Ca^2+ and Mg^2+ and collected by centrifugation at 1500×g for 10 min. The cells were homogenised in Tris-HCl 50 mM using an Ultraturrax homogenizer and centrifuged for 10 min at 23,500×g. The pellet was washed once by resuspension and rehomogenization and the final pellet was resuspended in Tris-HCl, divided in 1 ml aliquots and stored at −70° C.
(§3) Membranes were thawed and re-homogenized in incubation buffer (glycylglycine 25 mM, pH 8.0). In a total volume of 500 μl, 2-10 μg protein was incubated with [^3H]raulwolscine (NET-722) (New England Nuclear, USA) (1 nM final concentration) with or without competitor for 60 min at 25° C. followed by rapid filtration over GF/B filter using a Filtermate 196 harvester (Packard, Meriden, Conn.). Filters were rinsed extensively with ice-cold rinsing buffer (Tris-HCl 50 mM pH 7.4). Filter-bound radioactivity was determined by scintillation counting in a Topcount (Packard, Meriden, Conn.) and results were expressed as counts per minute (cpm). Non-specific binding was determined in the presence of 1 μM oxymetazoline for hα2A- and hα2B-receptors and 1 μM spiroxatrine for hα2C receptors.
(§4) Data from assays in the presence of compound were calculated as a percentage of total binding measured in the absence of test compound. Inhibition curves, plotting percent of total binding versus the log value of the concentration of the test compound, were automatically generated, and sigmoidal inhibition curves were fitted using non-linear regression. The pIC50 values of test compounds were derived from individual curves. All compounds according to Formula (I) produced an inhibition at least at the hα2A site (but often also at the hα2B and hα2C sites) and simultaneously at the 5-HT transporter site of more than 50% (PIC50) at a test concentration ranging between 10^−6 M and 10^−9 M in a concentration-dependent manner.

h5-HT transporter = target: T2, h5-HT transporter (Homo sapiens, UniProt P31645); test: Radioligand binding experiment for 5-HT transporter ([3H]paroxetine); settings: human platelet membranes; [3H]paroxetine 0.5 nM; read-out: 5-HTT (converted)
T2 construct: Human platelet membranes (Oceanix Biosciences Corporation, Hanover, Md., USA) were thawed; tissue Oceanix Biosciences Corporation; host or cells: human platelet membranes
T2 sequence (P31645 whole entry): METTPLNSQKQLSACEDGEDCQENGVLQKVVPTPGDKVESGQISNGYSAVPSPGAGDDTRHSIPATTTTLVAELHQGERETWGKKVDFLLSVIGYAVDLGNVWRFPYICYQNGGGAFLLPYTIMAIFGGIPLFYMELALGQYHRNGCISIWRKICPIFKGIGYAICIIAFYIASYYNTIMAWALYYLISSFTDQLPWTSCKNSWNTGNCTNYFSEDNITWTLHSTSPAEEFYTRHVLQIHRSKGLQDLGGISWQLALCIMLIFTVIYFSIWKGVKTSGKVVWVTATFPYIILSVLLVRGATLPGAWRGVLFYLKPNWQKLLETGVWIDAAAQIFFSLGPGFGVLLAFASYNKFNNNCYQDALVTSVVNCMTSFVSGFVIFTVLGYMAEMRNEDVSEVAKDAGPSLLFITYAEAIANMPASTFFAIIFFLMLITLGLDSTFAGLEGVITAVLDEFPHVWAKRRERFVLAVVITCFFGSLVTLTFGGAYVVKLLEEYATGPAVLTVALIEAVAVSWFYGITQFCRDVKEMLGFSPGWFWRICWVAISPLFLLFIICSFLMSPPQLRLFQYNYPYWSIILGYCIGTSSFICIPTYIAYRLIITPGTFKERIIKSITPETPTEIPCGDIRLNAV
Protocol: as §1
Human platelet membranes (Oceanix Biosciences Corporation, Hanover, Md., USA) were thawed, diluted in buffer (Tris-HCl 50 mM, 120 mM NaCl and 5 mM KCl) and quickly (max 3 s) homogenised with an Ultraturrax homogenizer. In a total volume of 250 μL, 50-100 μg protein was incubated with [^3H]paroxetine (NET-869) (New England Nuclear, USA) (0.5 nM final concentration) with or without competitor for 60 min at 25° C. Incubation was stopped by rapid filtration of the incubation mixture over GF/B filters, pre-wetted with 0.1% polyethyleneamine, using a Filtermate 196 harvester (Packard, Meriden, Conn.). Filters were rinsed extensively with ice-cold buffer and radioactivity on the filters was counted in a Topcount liquid scintillation counter (Packard, Meriden, Conn.). Data were expressed as cpm. Imipramine (at 1 μM final concentration) was used to determine the non-specific binding.
as §4

hα2C receptor = target: T3, hα2C receptor (Homo sapiens, UniProt P18825); test: Radioligand binding experiment for α2C-adrenergic receptor ([3H]-raulwolscine); settings: membranes of CHO cells transfected with human α2C receptor; [3H]raulwolscine 1 nM
T3 construct: expressed in transfected cells
T3 sequence (P18825 1-462): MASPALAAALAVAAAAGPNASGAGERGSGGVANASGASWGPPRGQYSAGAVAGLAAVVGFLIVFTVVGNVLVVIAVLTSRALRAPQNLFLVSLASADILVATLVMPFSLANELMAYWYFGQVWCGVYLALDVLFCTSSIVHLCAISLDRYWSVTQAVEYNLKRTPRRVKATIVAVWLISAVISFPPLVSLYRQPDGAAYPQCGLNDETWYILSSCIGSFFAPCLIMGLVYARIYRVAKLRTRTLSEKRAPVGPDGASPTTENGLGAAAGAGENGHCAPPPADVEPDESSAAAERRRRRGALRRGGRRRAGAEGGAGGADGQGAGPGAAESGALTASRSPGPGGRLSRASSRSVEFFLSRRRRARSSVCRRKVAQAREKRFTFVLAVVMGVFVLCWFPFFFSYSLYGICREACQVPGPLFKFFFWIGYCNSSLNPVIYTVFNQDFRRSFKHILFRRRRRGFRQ
Protocol: as §1, §2, §3, §4

hα2B receptor = target: T4, hα2B receptor (Homo sapiens, UniProt P18089); test: Radioligand binding experiment for α2B-adrenergic receptor ([3H]-raulwolscine); settings: membranes of CHO cells transfected with human α2B receptor; [3H]raulwolscine 1 nM
T4 construct: expressed in transfected cells
T4 sequence (P18089 1-450): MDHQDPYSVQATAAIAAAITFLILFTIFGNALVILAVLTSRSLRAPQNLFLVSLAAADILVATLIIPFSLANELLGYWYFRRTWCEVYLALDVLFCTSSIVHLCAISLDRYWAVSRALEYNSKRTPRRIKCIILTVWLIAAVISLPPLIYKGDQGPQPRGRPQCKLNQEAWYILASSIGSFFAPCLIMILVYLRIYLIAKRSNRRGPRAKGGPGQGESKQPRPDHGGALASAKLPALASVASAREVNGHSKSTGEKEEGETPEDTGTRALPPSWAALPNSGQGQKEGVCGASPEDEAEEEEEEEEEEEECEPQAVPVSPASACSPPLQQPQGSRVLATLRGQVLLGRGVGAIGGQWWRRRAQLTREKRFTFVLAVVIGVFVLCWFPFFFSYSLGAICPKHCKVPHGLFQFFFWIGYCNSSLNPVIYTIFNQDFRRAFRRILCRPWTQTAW
Protocol: as §1, §2, §3, §4

| SMILES | IC50 (hα2A receptor) | IC50 (h5-HT transporter) | IC50 (hα2C receptor) | IC50 (hα2B receptor) |
| --- | --- | --- | --- | --- |
| COc1cc2c(c(C)c1OC)OC[C@@H]1C2=NO[C@H]1CN1CCN(C/C(C)=C/c2ccccc2)CC1 (single isomer, unassigned) [Compound 3, 7,8-dimethoxy-6-methyl-3-[4-(2-methyl-3-phenyl-allyl)-piperazin-1-ylmethyl]-3a,4-dihydro-3H-chromeno[4,3-c]isoxazole] | 1.58 nM | 31.6 nM | 0.398 nM |  |
| CCOC(=O)c1c(OC)c(OC)cc2c1OC[C@@H]1C2=NO[C@H]1CN1CCN(C/C(C)=C/c2ccccc2)CC1 (single isomer, unassigned) [Compound 4, 7,8-dimethoxy-3-[4-(2-methyl-3-phenyl-allyl)-piperazin-1-ylmethyl]-3a,4-dihydro-3H-chromeno[4,3-c]isoxazole-6-carboxylic acid ethyl ester] | 6.31 nM | 63.1 nM | 1.26 nM | 3.98 nM |
| COc1cc2c(c(C#N)c1OC)OCC1C2=NOC1CN1CCN(CC(C)=Cc2ccc(F)cc2)CC1 (centres unmarked) [Compound 19] | 10 nM | 126 nM | 15.8 nM | 20 nM |
| CCNC(=O)OCCOc1cccc2c1OCC1C2=NOC1CN1CCN(CC(C)=Cc2ccccc2)CC1 (centres unmarked) [Compound 10] | 79.4 nM | 39.8 nM | 6.31 nM | 5.01 nM |
| COc1cc2c(c(Br)c1OC)OCC1C2=NOC1CN1CCN(C/C(C)=C/c2ccccc2)CC1 (centres unmarked) [Compound 1, 6-Bromo-7,8-dimethoxy-3-[4-(2-methyl-3-phenyl-allyl)-piperazin-1-ylmethyl]-3a,4-dihydro-3H-chromeno[4,3-c]isoxazole] | 2 nM | 12.6 nM | 1 nM |  |
| COCC(=O)OCCOc1cccc2c1OCC1C2=NOC1CN1CCN(CC(C)=Cc2ccccc2)CC1 (single isomer, unassigned) [Compound 24] | 100 nM | 31.6 nM | 39.8 nM | 25.1 nM |
| CC(=O)Nc1cccc2c1OCC1C2=NOC1CN1CCN(CC(C)=Cc2ccccc2)CC1 (centres unmarked) [Compound 22] | 31.6 nM | 25.1 nM | 3.98 nM | 2 nM |
| COCC(=O)OCCOc1cccc2c1OCC1C2=NOC1CN1CCN(CC(C)=Cc2ccccc2)CC1 (single isomer, unassigned) [Compound 25] | 39.8 nM | 316 nM | 2 nM | 1.58 nM |
| COc1cccc2c1C1=NOC(CN3CCN(CC(C)=Cc4ccccc4)CC3)C1CO2 (centres unmarked) [Compound 8] | 2 nM | 251 nM | 2.51 nM | 1 nM |
| CC(=Cc1ccccc1)CN1CCN(CC2ON=C3c4cccc(NCc5ccccc5)c4OCC32)CC1 (centres unmarked) [Compound 23] | 63.1 nM | 126 nM | 20 nM | 50.1 nM |
| C/C(=C\c1ccccc1)CN1CCN(C[C@@H]2ON=C3c4cccc(O)c4OC[C@H]32)CC1 (relative stereo) [Compound 7, 3-[4-(2-methyl-3-phenyl-allyl)-piperazin-1-ylmethyl]-3a,4-dihydro-3H-chromeno[4,3-c]isoxazol-6-ol] | 7.94 nM | 50.1 nM | 2 nM | 1.26 nM |
| COc1cc2c(c(Nc3ccncc3)c1OC)OC[C@@H]1C2=NO[C@H]1CN1CCN(C/C(C)=C/c2ccc(F)cc2)CC1 (relative stereo) [Compound 21, (3-{4-[3-(4-fluoro-phenyl)-2-methyl-allyl]-piperazin-1-ylmethyl}-7,8-dimethoxy-3a,4-dihydro-3H-chromeno [4,3-c]isoxazol-6-yl)-pyridin-4-yl-amine] | 63.1 nM | 398 nM | 6.31 nM | 15.8 nM |
| CCNC(=O)Nc1cccc2c1OCC1C2=NOC1CN1CCN(CC(C)=Cc2ccccc2)CC1 (centres unmarked) [Compound 17] | 63.1 nM | 10 nM | 15.8 nM | 6.31 nM |
| COc1cc2c(c(N3CCN(C)CC3)c1OC)OC[C@@H]1C2=NO[C@H]1CN1CCN(C/C(C)=C/c2ccccc2)CC1 (single isomer, unassigned) [Compound 2, 7,8-dimethoxy-3-[4-(2-methyl-3-phenyl-allyl)-piperazin-1-ylmethyl]-6-(4-methyl-piperazin-1-yl)-3a,4-dihydro-3H-chromeno [4,3-c]isoxazole] | 6.31 nM | 39.8 nM | 0.794 nM | 1.58 nM |
| COc1cc2c(c(I)c1OC)OCC1C2=NOC1CN1CCN(CC(C)=Cc2ccc(F)cc2)CC1 (centres unmarked) [Compound 18] | 25.1 nM | 50.1 nM | 25.1 nM | 31.6 nM |
| CC(=Cc1ccccc1)CN1CCN(CC2ON=C3c4c(O)cccc4OCC32)CC1 (centres unmarked) [Compound 9] | 25.1 nM | 63.1 nM | 1.26 nM | 2 nM |
